Test system: participants with SSc-RP
Assay: Scleroderma Health Assessment Questionnaire (SHAQ): disability indices and visual analog scales
Format: in vivo, human
Details: PP Population, Part A, sensitivity analysis
From the text: The standard, validated, patient reported outcome measures tool for SSc patients, the Scleroderma Health Assessment Questionnaire (SHAQ), will be used to assess the participant qualify of life. Details are attached in the Appendix. The participant quality of life will be scored, and a disability index calculated for each questionnaire completed by the patient at Screening and each in-clinic visit. The absolute change in participant quality of life from baseline to the end of each dosing period will be calculated similar to frequency data as before.
The SHAQ includes a Raynaud's VAS, which will be reported at screening and each in-clinic visit. The absolute change in Raynaud-VAS, assessed by the participants response to the SHAQ question ‘In the past 7 days, how much have your Raynaud's interfered with your daily activities?’ at baseline and the end of each dosing period will be calculated similar to frequency data as before.
The SHAQ is used to calculate a Disability Index to assess the participant qualify of life. The eight categories assessed by the Disability Index are 1) dressing and grooming, 2) arising, 3) eating, 4) walking, 5) hygiene, 6) reach, 7) grip, and 8) common daily activities. For each of these categories, patients report the amount of difficulty they have in performing two or three specific activities.
There are four possible responses for the Disability Index questions: • Without any difficulty=0 • With some difficulty=1 • With much difficulty=2 • Unable to do=3. • The highest score reported by the patient for any component question of the eight categories determines the score for that category. • If a component question is left blank or the response is too ambiguous to assign a score, then the score for that category is determined by the remaining completed question(s). • If all component questions are blank or if more than one answer is given, then follow up with the respondent is required. • If the respondent's mark is between the response columns, then move it to the closest one. If it's directly between the two, move it to the higher one.
Each of the disability items on the SHAQ has a companion aids/devices variable that is used to record what type(s) of assistance, if any, the participant uses for his/her usual activities. These variables (see below) are coded as follows: • 0=No assistance is needed. • 1=A special device is used by the patient in his/her usual activities. • 2=The patient usually needs help from another person. • 3=The patient usually needs BOTH a special device AND help from another person.
The scoring variables and scoring rules permit the computation of two disability indices, the Standard Disability Index and the Alternative Disability Index.
This question results in a new set of category scores that are computed by adjusting the score for each category, if necessary, based on the patient's use of an aid or device or assistance for that category. If either devices and/or help from another person are checked for a category, the score is set to “2”, unless the score is already “3” (i.e., scores of “0” or “1” are increased to “2”). For example, if the highest score for the dressing category is “1”, and the patient says they use a device for dressing, the computed category score would be “2”. The sum of the computed categories scores is then calculated and divided by the number of categories answered. This gives a score in the 0 to 3 range.
The aid and device variables are not used to calculate the alternative disability index; it is calculated by adding the scores for each of the categories and dividing by the number of categories answered. This gives a score in the 0 to 3 range.
The standard, validated, patient reported outcome measures tool for SSc patients, the SHAQ, was collected at the time points specified in the study schedules (FIG. 2 and FIGS. 4A and 4B) to assess the participant's quality of life. The SHAQ included a Raynaud's VAS that will also be reported separately.

[1] = cilnidipine 10 mg and/or tadalafil 5 mg as labelled
[2] = cilnidipine 20 mg, plus tadalafil 5 mg where labelled

Question: Which results are given for `COCCOC(=O)C1=C(C)NC(C)=C(C(=O)OC/C=C/c2ccccc2)C1c1cccc([N+](=O)[O-])c1` (stereo not shown) [Cilnidipine, cilnidipine]?
Answer: SHAQ Visual Analogue Scale - Intestinal Problems: Change from Baseline (Day 12), Median [1]: −1.550; SHAQ Visual Analogue Scale - Intestinal Problems: In-Clinic Visit (Day 12), Mean [1]: 1.100; SHAQ Visual Analogue Scale - Intestinal Problems: In-Clinic Visit (Day 12), Median [1]: 0.300; SHAQ Visual Analogue Scale - Intestinal Problems: Percent Change from Baseline (Day 12), Mean [1]: −77.37%; SHAQ Visual Analogue Scale - Intestinal Problems: Percent Change from Baseline (Day 12), Median [1]: −88.00%; SHAQ Visual Analogue Scale - Overall Disease Severity: Baseline, Mean [1]: 2.725; SHAQ Visual Analogue Scale - Overall Disease Severity: Baseline, Median [1]: 1.900; SHAQ Visual Analogue Scale - Overall Disease Severity: Change from Baseline (Day 12), Mean [1]: −0.900; SHAQ Visual Analogue Scale - Overall Disease Severity: Change from Baseline (Day 12), Median [1]: −0.950; SHAQ Visual Analogue Scale - Overall Disease Severity: In-Clinic Visit (Day 12), Mean [1]: 1.825; SHAQ Visual Analogue Scale - Overall Disease Severity: In-Clinic Visit (Day 12), Median [1]: 1.050; SHAQ Visual Analogue Scale - Overall Disease Severity: Percent Change from Baseline (Day 12), Mean [1]: −56.96%; SHAQ Visual Analogue Scale - Overall Disease Severity: Percent Change from Baseline (Day 12), Median [1]: −44.12%; SHAQ Visual Analogue Scale - Raynaud's: Baseline, Mean [1]: 1.600; SHAQ Visual Analogue Scale - Raynaud's: Baseline, Median [1]: 1.000; SHAQ Visual Analogue Scale - Raynaud's: Change from Baseline (Day 12), Mean [1]: 0.325; SHAQ Visual Analogue Scale - Raynaud's: Change from Baseline (Day 12), Median [1]: 0.350; SHAQ Visual Analogue Scale - Raynaud's: In-Clinic Visit (Day 12), Mean [1]: 1.925; SHAQ Visual Analogue Scale - Raynaud's: In-Clinic Visit (Day 12), Median [1]: 1.700; SHAQ Visual Analogue Scale - Raynaud's: Percent Change from Baseline (Day 12), Mean [1]: 11.36%; SHAQ Visual Analogue Scale - Raynaud's: Percent Change from Baseline (Day 12), Median [1]: −2.27%; SHAQ Visual Analogue Scale - Breathing Problems: Baseline, Mean [2]: 1.325; SHAQ Visual Analogue Scale - Breathing Problems: Baseline, Median [2]: 1.550; SHAQ Visual Analogue Scale - Breathing Problems: Change from Baseline (Day 12), Mean [2]: −0.475; SHAQ Visual Analogue Scale - Breathing Problems: Change from Baseline (Day 12), Median [2]: −0.250; SHAQ Visual Analogue Scale - Breathing Problems: In-Clinic Visit (Day 12), Mean [2]: 0.850; SHAQ Visual Analogue Scale - Breathing Problems: In-Clinic Visit (Day 12), Median [2]: 0.450; SHAQ Visual Analogue Scale - Breathing Problems: Percent Change from Baseline (Day 12), Mean [2]: 3.73%; SHAQ Visual Analogue Scale - Breathing Problems: Percent Change from Baseline (Day 12), Median [2]: −17.54%; SHAQ Visual Analogue Scale - Finger Ulcers: Baseline, Mean [2]: 1.800; SHAQ Visual Analogue Scale - Finger Ulcers: Baseline, Median [2]: 0.300; SHAQ Visual Analogue Scale - Finger Ulcers: Change from Baseline (Day 12), Mean [2]: −0.933; SHAQ Visual Analogue Scale - Finger Ulcers: Change from Baseline (Day 12), Median [2]: 0.000; SHAQ Visual Analogue Scale - Finger Ulcers: In-Clinic Visit (Day 12), Mean [2]: 0.650; SHAQ Visual Analogue Scale - Finger Ulcers: In-Clinic Visit (Day 12), Median [2]: 0.350; SHAQ Visual Analogue Scale - Finger Ulcers: Percent Change from Baseline (Day 12), Mean [2]: 35.29%; SHAQ Visual Analogue Scale - Finger Ulcers: Percent Change from Baseline (Day 12), Median [2]: 35.29%; SHAQ Visual Analogue Scale - Intestinal Problems: Baseline, Mean [2]: 0.700; SHAQ Visual Analogue Scale - Intestinal Problems: Baseline, Median [2]: 0.650; SHAQ Visual Analogue Scale - Intestinal Problems: Change from Baseline (Day 12), Mean [2]: 0.150; SHAQ Visual Analogue Scale - Intestinal Problems: Change from Baseline (Day 12), Median [2]: 0.150; SHAQ Visual Analogue Scale - Intestinal Problems: In-Clinic Visit (Day 12), Mean [2]: 0.850; SHAQ Visual Analogue Scale - Intestinal Problems: In-Clinic Visit (Day 12), Median [2]: 0.650; SHAQ Visual Analogue Scale - Intestinal Problems: Percent Change from Baseline (Day 12), Mean [2]: −10.00%; SHAQ Visual Analogue Scale - Intestinal Problems: Percent Change from Baseline (Day 12), Median [2]: 30.00%; SHAQ Visual Analogue Scale - Overall Disease Severity: Baseline, Mean [2]: 3.125; SHAQ Visual Analogue Scale - Overall Disease Severity: Baseline, Median [2]: 2.950; SHAQ Visual Analogue Scale - Overall Disease Severity: Change from Baseline (Day 12), Mean [2]: −2.000; SHAQ Visual Analogue Scale - Overall Disease Severity: Change from Baseline (Day 12), Median [2]: −1.700; SHAQ Visual Analogue Scale - Overall Disease Severity: In-Clinic Visit (Day 12), Mean [2]: 1.125; SHAQ Visual Analogue Scale - Overall Disease Severity: In-Clinic Visit (Day 12), Median [2]: 1.300; SHAQ Visual Analogue Scale - Overall Disease Severity: Percent Change from Baseline (Day 12), Mean [2]: −64.20%; SHAQ Visual Analogue Scale - Overall Disease Severity: Percent Change from Baseline (Day 12), Median [2]: −64.44%; SHAQ Visual Analogue Scale - Raynaud's: Baseline, Mean [2]: 3.075; SHAQ Visual Analogue Scale - Raynaud's: Baseline, Median [2]: 3.000; SHAQ Visual Analogue Scale - Raynaud's: Change from Baseline (Day 12), Mean [2]: −1.200; SHAQ Visual Analogue Scale - Raynaud's: Change from Baseline (Day 12), Median [2]: −1.050; SHAQ Visual Analogue Scale - Raynaud's: In-Clinic Visit (Day 12), Mean [2]: 1.875; SHAQ Visual Analogue Scale - Raynaud's: In-Clinic Visit (Day 12), Median [2]: 1.250; SHAQ Visual Analogue Scale - Raynaud's: Percent Change from Baseline (Day 12), Mean [2]: −41.11%; SHAQ Visual Analogue Scale - Raynaud's: Percent Change from Baseline (Day 12), Median [2]: −38.67%

— US20240358693A1, “METHODS OF TREATING PAIN” (Aisa Pharma, Inc., priority 2023, published 2024)
